Legend:
Urokinase (sc-urokinase) = molecular target: T1, Urokinase (sc-urokinase) (Homo sapiens, UniProt P00749); experiment: In vitro inhibition of urokinase (chromogenic substrate, Dixon Ki); format: biochemical; conditions: in vitro inhibition of urokinase, 25° C, pH 8.0, 5% ethanol; read-out: Ki
T1 construct: purchased Ribosepharm GmbH, Haan, Germany
Protocol: To determine the inhibitory activity, 200 μl of Tris buffer (0.05 mol/l, containing the inhibitor, 0.154 mol/l NaCl, 5% ethanol pH 8.0), 25 μl of substrate (Pefachrome UK or Bz-βAla-Gly-Arg-pNA in H2O; Pentapharm Ltd., Basle, Switzerland) and 50 μl of sc-urokinase (Ribosepharm GmbH, Haan, Germany) were incubated at 25° C. After 3 min the reaction was stopped by adding 25 μl of acetic acid (50%), and the absorption at 405 nm was determined by means of a Microplate Reader (MR 5000, Dynatech, Denkendorf, Germany). Ki values were determined according to Dixon by linear regression using a computer program. The Ki values are the mean values of at least three determinations with a standard deviation of less than 25%.

[1] = test system: BN-472 rat mammary carcinoma; experiment: BN-472 rat mammary carcinoma model, single agent and combination with cytotoxics (Example 11); conditions: for anti-tumor effects (tumor size development, final tumor weight): once weekly administration i.v.
Protocol: WX-UK1 was dissolved in 5% w/v of D-mannitol to the appropriate dosage and administered once daily or twice weekly either subcutaneously (s.c.) or intraperitonally (i.p.).
Epirubicin (0.75-3 mg/kg body wight), paclitaxel (5-7.5 mg/kg) or 5-FU (20 and 40 mg/kg) was given once weekly by i.v. injection into the external jugular vein.
Control rats received the vehicle 5% w/v of D-mannitol once daily s.c.
A donor rat bearing a tumor of 20×20 mm was sacrificed, the tumor harvested ant the cortex part was sliced into cubes of approximately 10 mm^3 and the transplated orthotopically under the mammary fad pads of female Brown Norway rats.
Treatment was started three or six days (5-FU experiment) after tumor inoculation. Each treatment group consisted of 15 to 21 rats.
Tumor load is plotted as the average±standard error of the mean (SEM).
Tumor, organ weights as well as lung foci counts are presented in Box-Whisker graphs. […] Whiskers extend to the extreme lower 5th and upper 95th percentiles of values. Dots represent individual data.
P-values represent significance levels of pairwise comparisons of treatment groups versus vehicle control. For combination therapy experiments the P-values for the comparison of a cytostatic mono-therapy versus the combination therapy is given.

SMILES	Ki (Urokinase (sc-urokinase)) [nM]	anti-tumor effects (tumor size development, final tumor weight) [1]	thymus atrophy ([1]; rat, in vivo)
CCOC(=O)N1CCN(C(=O)C(Cc2cccc(C(=N)N)c2)NS(=O)(=O)c2c(C(C)C)cc(C(C)C)cc2C(C)C)CC1.Cl (centres unmarked) [D,L, Nα-(2,4,6-triisopropylphenylsulfonyl)-3-amidino-(D,L)-phenylalanine 4-ethoxycarbonylpiperazide hydrochloride]	960		
O=c1[nH]cc(F)c(=O)[nH]1 [Example 5-FU, 5-fluorouracil, reference compound]		Dose-dependent anti-tumor effects	
COc1cccc2c1C(=O)c1c(O)c3c(c(O)c1C2=O)C[C@@](O)(C(=O)CO)C[C@@H]3O[C@H]1C[C@H](N)[C@@H](O)[C@H](C)O1 [epirubicin, reference compound]		Dose-dependent anti-tumor effects	thymus atrophy
CC(=O)O[C@H]1C(=O)[C@@]2(C)[C@H]([C@H](OC(=O)c3ccccc3)[C@]3(O)C[C@H](OC(=O)[C@H](O)[C@@H](NC(=O)c4ccccc4)c4ccccc4)C(C)=C1C3(C)C)[C@]1(OC(C)=O)CO[C@@H]1C[C@@H]2O [paclitaxel, reference compound]		Dose-dependent anti-tumor effects	

Reference: patent US7342018B2, “Urokinase inhibitors and uses thereof” (Wilex AG, priority 1998, dated 2008)
